Where two headings read alike, the source gives them in different places.
Experiments:
serum triglyceride = experiment: Serum triglyceride (Fisher-Hycel Triglyceride Test Kit) in mice; format: in vivo, male CF1 mice; details: Mus musculus, 384 h, Day 16; for response vs control in vivo at 20 mg/kg: 20 mg./kg./day intraparenterally; for response vs control in vivo at 8 mg/kg: 8 mg./kg/day, procedure of Example 1
Protocol: (§1) For determining hypolipidemic activity, representative compounds of this invention were suspended in an aqueous 1% carboxymethylcellulose solution and tested at 20 mg./kg./ day administered intraparenterally to male CF1 mice (~25 g.). Six animals were used for each test. On days 9 and 16, blood was collected by tail vein bleeding and the serum separated by centrifugation for three minutes. Serum cholesterol levels were determined by a modified Liebermann-Burchard reaction. Serum triglyceride levels were also determined at 16 days using a Fisher-Hycel Triglyceride Test Kit.
(§2) The procedure of Example 1 was repeated with octade-cylamine and N,N-dimethyl-n-octadecylamine at a dosage of 8 mg./kg/ day.

serum cholesterol [1] = experiment: Serum cholesterol (modified Liebermann-Burchard reaction) in mice; format: in vivo, male CF1 mice; details: for response vs control in vivo at 20 mg/kg: Mus musculus, 20 mg./kg./day intraparenterally, male CF1 mice; for Serum cholesterol, % of Control, Day 9 / Serum cholesterol, % of Control, Day 16: 8 mg./kg/day, procedure of Example 1
Protocol: as §1, §2

serum cholesterol [2] = experiment: as above; format: in vivo; details: Mus musculus, clofibrate at its therapeutic dose of 150 mg., male CF1 mice
[3] = tested on: ATP dependent citrate lyase; details: in vivo; cited from earlier work
acetyl CoA synthetase = details: in vivo; cited from earlier work
[4] = tested on: phosphatidate phosphohydrolase; details: in vivo; cited from earlier work
[5] = 2.5 mg/kg in mice; cited from earlier work
cholesterol excretion = details: mouse, in vivo; cited from earlier work
[6] = 216 h, Day 9, read-out: Serum Cholesterol, % of Control, Day 9
[7] = 384 h, Day 16, read-out: Serum Cholesterol, % of Control, Day 16

Compound | response vs control in vivo at 20 mg/kg (serum triglyceride; male CF1 mice) [%] | response vs control in vivo at 20 mg/kg (serum cholesterol [1]; [6]) [%] | response vs control in vivo at 20 mg/kg (serum cholesterol [1]; [7]) [%] | other results
CCCCCCCCCCCCCCCCN [1-hexadecylamine] | 63 ± 6 | 39 ± 5 | 35 ± 4 | –
CCCCCCCCCCCCCCN [1-tetradecylamine] | 54 ± 6 | 50 ± 4 | 34 ± 3 | –
CCCCCCCCCCCCCCCCCCN(C)C [N,N-dimethyl-n-octadecylamine] | 56 ± 3 | 76 ± 6 | 61 ± 5 | response vs control in vivo at 8 mg/kg (serum triglyceride): 84 ± 6%; Serum cholesterol, % of Control, Day 9 (serum cholesterol [1]; Day 9): 91 ± 5 % of Control; Serum cholesterol, % of Control, Day 16 (serum cholesterol [1]; Day 16): 79 ± 5 % of Control
CCCCCCCCCCCCCCCCCCNC [N-methyloctadecylamine] | 64 ± 6 | 51 ± 5 | 44 ± 4 | –
CCOC(=O)C(C)(C)Oc1ccc(Cl)cc1 [clofibrate] | – | – | – | response vs control in vivo at 150 mg (serum cholesterol [2]; [6]): 88 ± 7%; response vs control in vivo at 150 mg (serum cholesterol [2]; [7]): 87 ± 5%; response vs control in vivo at 150 mg (serum triglyceride; clofibrate at its therapeutic dose of 150 mg., male CF1 mice): 75 ± 5%
CCCCCCCCCCN [decylamine] | 59 ± 6 | 48 ± 4 | 38 ± 5 | –
CCCCCCCCCCCCN [dodecylamine] | 64 ± 4 | 63 ± 6 | 61 ± 5 | –
CCCCCCCCCCCCCCCCCCN [octadecylamine] | 56 ± 4 | 72 ± 5 | 64 ± 4 | response vs control in vivo at 8 mg/kg (serum triglyceride): 60 ± 5%; Serum cholesterol, % of Control, Day 9 (serum cholesterol [1]; Day 9): 63 ± 3 % of Control; Serum cholesterol, % of Control, Day 16 (serum cholesterol [1]; Day 16): 57 ± 4 % of Control
CCCCCCCCCCCCCN [tridecylamine] | 73 ± 7 | 69 ± 5 | 67 ± 5 | –
CCCCCCCCCCCN [undecylamine] | 66 ± 5 | 61 ± 5 | 57 ± 6 | –
tetrakis-u-(trimethylamine-borane carboxyato) bis(trimethylaminecarboxyborane)-dicopper (II) | – | – | – | ATP dependent citrate lyase [3]: lower; acetyl CoA synthetase (acetyl CoA synthetase): lower; phosphatidate phosphohydrolase [4]: lower; hypolipidemic activity [5]: potent hypolipidemic agent; cholesterol excretion from the body (cholesterol excretion): accelerate cholesterol excretion from the body

Source: patent US4845130A, “Antihyperlipidemic amines” (United States Borax & Chemical Corporation, priority 1988, dated 1989)
